Where no end group is shown, it is not given here.
Test system: C-S170 Ab
Assay: ELISA binding of immobilized HBc CTD peptides to C-S170 Ab
Design: species or system rabbit
Details: Fig 1C; for O.D. Mean: mean of n = 2
Procedure: To quantify the binding specificity of C-S170 Ab with non-phosphorylated HBc-Ser170, a flat-bottomed 96-well plate was coated with 100 ng of various peptides, including the non-phosphorylated and phosphorylated peptides covering Ser150, Ser162 and Ser170, and then the C-S170 Ab was added to the wells. For the competition of various peptides to C-S170 Ab, the 96-well plate was coated with 100 ng of non-phosphorylated HBc-Ser170 peptide and then a preincubated mixture containing 100 ng of peptide and the C-S170 Ab was added to the wells. After incubation with rabbit IgG conjugated with HRP, TMB substrate and a stop solution were added. The absorbance at a wavelength of 450 nm (A450) with a reference wavelength of 650 nm was measured using a microplate reader. GraphPad Prism 5 software was used to generate bar graphs and calculate Kd values, binding percentages, and inhibition percentages.

With PRRRRSQSPRRRR [Ser170] the “O.D. Mean” value ([Ab] 0.0001 ng/mL) was 0.008, the O.D. ([Ab] 0.0001 ng/mL, replicate 1) was 0.008 and the O.D. ([Ab] 0.0001 ng/mL, replicate 2) was 0.008. For the same sequence, the “O.D. Mean” value ([Ab] 0.001 ng/mL) was 0.032, the O.D. ([Ab] 0.001 ng/mL, replicate 1) was 0.034 and the O.D. ([Ab] 0.001 ng/mL, replicate 2) was 0.03. For the same sequence, the “O.D. Mean” value ([Ab] 0.01 ng/mL) was 0.271, the O.D. ([Ab] 0.01 ng/mL, replicate 1) was 0.255 and the O.D. ([Ab] 0.01 ng/mL, replicate 2) was 0.288. The “O.D. Mean” value ([Ab] 0.1 ng/mL) was 1.801, the O.D. ([Ab] 0.1 ng/mL, replicate 1) was 1.753 and the O.D. ([Ab] 0.1 ng/mL, replicate 2) was 1.85.
